From patent US20220296595A1, “CDK INHIBITORS” (QILU REGOR THERAPEUTICS INC., priority 2019, published 2022)
Where two headings read alike, the source gives them in different places.

Tests used:
CDK4/CyclinD1 = target: T1, CDK4/CyclinD1 (Homo sapiens, UniProt P11802); assay: Assay for inhibition of CDK4/CyclinD1 (Caliper microfluidic kinase assay); assay type: biochemical
T1 construct: purchased Thermofisher PR8064A
Method: (§1) The CDK4 enzyme assay for IC50 determination was performed as follows. Microfluidic kinase detection technology (Caliper) was used to monitor the phosphorylation of peptide substrate by CDK4/CyclinD1. The total reaction volume was 15 μL containing buffer A (100 mM HEPES (pH 7.5), 0.1% BSA, 0.01% Triton X-100, 1 mM DTT, 10 mM MgCl2, 10 μM Sodium Orthovanadate, 10 μM Beta-Glycerophosphate), 200 μM ATP, 1 nM CDK4/CyclinD1 (Thermofisher, PR8064A), 1 μM FL-34 (5-FAM-[…]), and the test compound at appropriate dilutions in DMSO. All components were added to the 384-well plate (Corning, 4514), and incubated at Room Temperature for 3 hours. The reaction was terminated by addition of 15 μL Stop Buffer (180 mM HEPES (pH 7.5), 20 mM EDTA, Coating-3 reagent (PerkinElmer, 760050)). The plate was then loaded on Caliper EZ Reader (EZ Reader II, PerkinElmer, HD-4HYSG2772), and the reaction mixtures including substrate and product were sipped into the microfluidic chip for separation and detection. The IC50 values of the test compound were determined by fitting the inhibition curves by 4 parameter sigmoidal dose-response model using the Xlfit5/GraphPad Prism 5 software.

CDK6/CyclinD3 = target: T2, CDK6/CyclinD3 (Homo sapiens, UniProt Q00534); assay: Assay for inhibition of CDK6/CyclinD3 (Caliper microfluidic kinase assay); assay type: biochemical
T2 construct: purchased Carna 04-107
Method: as §1, with “The CDK6” for “The CDK4”, “by CDK6/CyclinD3.” for “by CDK4/CyclinD1.”, “volume is” for “volume was”, “Beta-Glycerophosphate), 300” for “Beta-Glycerophosphate), 200”, “ATP, 2” for “ATP, 1”, “nM CDK6/CyclinD3 (Carna, 04-107),” for “nM CDK4/CyclinD1 (Thermofisher, PR8064A),”

CDK2/CyclinE1 = target: T3, CDK2/CyclinE1 (Homo sapiens, UniProt P24941); assay: Assay for inhibition of CDK2/CyclinE1 (Caliper microfluidic kinase assay); assay type: biochemical; settings: read-out: CDK2 IC50
T3 construct: purchased SignalChem C29-18G
Method: The CDK2 enzyme assay for IC50 determination was performed as follows. Microfluidic kinase detection technology (Caliper) was used to monitor the phosphorylation of peptide substrate by CDK2/CyclinE1. The total reaction volume was 15 μL containing buffer A (100 mM HEPES (pH 7.5), 0.1% BSA, 0.01% Triton X-100, 1 mM DTT, 10 mM MgCl2, 10 μM Sodium Orthovanadate, 10 μM Beta-Glycerophosphate), 100 μM ATP, 5 nM CDK2/CyclinE1 (SignalChem, C29-18G), 5 μM FL-18 (5-FAM-QSPKKG-NH2), and the test compound at appropriate dilutions in DMSO. All components were added to the 384-well plate (Corning, 4514), and incubate at Room Temperature for 3 hours. The reaction was terminated by addition of 15 μL Stop Buffer (180 mM HEPES (pH 7.5), 20 mM EDTA, Coating-3 reagent (PerkinElmer, 760050)). The plate was loaded on Caliper EZ Reader (EZ Reader II, PerkinElmer, HD-4HYSG2772), and the reaction mixtures including substrate and product were sipped into the microfluidic chip for separation and detection. The IC50 values of the test compound were determined by fitting the inhibition curves by 4 parameter sigmoidal dose-response model using the Xlfit5/GraphPad Prism 5 software.

T47D breast cancer cells = assay: Anti-proliferation assay in T47D cell (Cyquant, day 6); assay type: cell-based, human; settings: Homo sapiens, T47D, anti-proliferation, T47D cells; read-out: T47D IC50
Source text: T47D is a human breast cancer cell line commonly used in biomedical research involving the hormonal expression of cancer cells. T47D cells are distinct from other human breast cancer cells in that their progesterone receptors (PR) are not regulated by estradiol, a hormone that is abundant within the cells themselves. T47D cells have been employed in studies of the effects of progesterone on breast cancer and the corresponding transcriptional regulation caused by introduced drugs. The cells have been noted to be extremely resistant to estrogens and antiestrogens.
T47D breast cancer cells from American Type Culture Collection (ATCC, HTB-133) were plated at 3000 cells/well in 96-well plates, and were incubated in RPMI 1640 medium (Gibco, 31800105) with 10% Fetal Bovine Serum (FBS, Biowest, FB-1058) at 37° C., 5% CO2. After overnight incubation, baseline values were measured of the samples from one plate using Cyquant reagent (Invitrogen, C35011) following manufacturer's recommendations. Cells were incubated with the detection reagent for 1 hour at 37° C., and then the fluorescence was measured with excitation at 485 nm and emission at 535 nm using Spectra Max M5 (Molecular Devices, HD-4HYSG3196). Other plates were dosed with compounds at a ten-point dose concentration from 10 μM to 0.51 nM in a 3-fold dilution scheme. On day 6 after compound addition, Cyquant reagent was added and the fluorescence was measured using Spectra Max M5. The IC50 values of the test compound's anti-proliferation activity were determined from the baseline subtracted viability readout curve using Xlfit5/GraphPad Prism 5 software.

T2 sequence (Q00534 whole entry): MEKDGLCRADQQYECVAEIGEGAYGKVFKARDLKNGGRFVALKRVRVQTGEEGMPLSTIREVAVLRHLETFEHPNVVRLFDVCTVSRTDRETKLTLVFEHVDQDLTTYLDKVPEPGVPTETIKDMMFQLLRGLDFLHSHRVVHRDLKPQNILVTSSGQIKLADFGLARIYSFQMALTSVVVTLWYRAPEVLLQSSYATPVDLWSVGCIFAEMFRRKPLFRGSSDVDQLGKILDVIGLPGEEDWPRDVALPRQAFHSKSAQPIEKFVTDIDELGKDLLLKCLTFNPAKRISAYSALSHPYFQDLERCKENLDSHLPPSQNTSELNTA
T2 sequence (P30281 whole entry partner): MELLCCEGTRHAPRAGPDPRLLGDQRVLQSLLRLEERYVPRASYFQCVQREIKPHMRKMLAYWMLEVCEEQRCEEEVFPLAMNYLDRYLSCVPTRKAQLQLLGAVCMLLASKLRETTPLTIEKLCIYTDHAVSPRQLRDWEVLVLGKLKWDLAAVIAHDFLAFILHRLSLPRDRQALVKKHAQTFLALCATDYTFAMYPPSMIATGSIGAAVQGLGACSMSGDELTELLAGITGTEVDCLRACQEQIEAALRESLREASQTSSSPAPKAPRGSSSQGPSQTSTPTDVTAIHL
T1 sequence (P11802 whole entry): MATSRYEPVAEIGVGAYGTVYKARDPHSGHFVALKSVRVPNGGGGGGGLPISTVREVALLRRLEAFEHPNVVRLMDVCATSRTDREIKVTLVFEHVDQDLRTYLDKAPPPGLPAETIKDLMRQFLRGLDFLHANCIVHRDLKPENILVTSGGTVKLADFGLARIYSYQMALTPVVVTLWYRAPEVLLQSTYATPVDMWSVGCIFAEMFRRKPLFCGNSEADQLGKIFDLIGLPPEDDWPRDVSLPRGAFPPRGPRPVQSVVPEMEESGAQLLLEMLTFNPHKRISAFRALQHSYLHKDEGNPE
T1 sequence (P24385 whole entry partner): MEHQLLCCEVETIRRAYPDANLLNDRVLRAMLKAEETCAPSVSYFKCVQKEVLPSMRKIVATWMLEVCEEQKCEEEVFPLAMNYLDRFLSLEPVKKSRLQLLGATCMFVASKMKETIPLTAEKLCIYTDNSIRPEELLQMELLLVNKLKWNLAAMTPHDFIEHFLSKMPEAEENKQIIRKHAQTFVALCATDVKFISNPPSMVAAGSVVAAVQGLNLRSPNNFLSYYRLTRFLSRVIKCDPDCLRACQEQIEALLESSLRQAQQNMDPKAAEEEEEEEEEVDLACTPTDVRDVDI

Row | IC50 (CDK2/CyclinE1; CDK2/CyclinE1, 100 μM ATP) | IC50 (CDK4/CyclinD1; CDK4/CyclinD1, 200 μM ATP) | IC50 (CDK6/CyclinD3; CDK6/CyclinD3, 300 μM ATP) | IC50 (T47D breast cancer cells) | SMILES | also measured
1 | 0.01 to 0.1 µM | < 0.01 µM |  | < 0.1 µM | CC(C)n1cnc2c(F)nc(-c3ccnc(Nc4ccc(N5CCC(N(C)C)C5=O)cc4)n3)cc21 (centres unmarked) [compound 268] | 
2 | > 1 µM | < 0.01 µM |  | < 0.1 µM | Cc1nc2c(F)nc(-c3ccnc(Nc4ccc(N5CCN(C(C)C)CC5)cn4)n3)cc2n1C(C)C [compound 269] | 
3 | > 1 µM | < 0.01 µM |  | < 0.1 µM | CNC1CCCN(c2ccc(Nc3nccc(-c4cc5c(ncn5C(C)C)c(F)n4)n3)nc2)C1=O (centres unmarked) [compound 284] | 
4 | 0.01 to 0.1 µM | < 0.01 µM |  | < 0.1 µM | CNC1CCCN(c2ccc(Nc3nccc(-c4cc5c(ncn5C(C)C)c(F)n4)n3)cc2)C1=O (centres unmarked) [compound 294] | 
5 | < 0.01 µM | < 0.01 µM |  | < 0.1 µM | Cc1nc2c(F)nc(-c3ccnc(Nc4ccc(N5CCC(N(C)C)CC5=O)cc4)n3)cc2n1C(C)C (centres unmarked) [compound 295] | 
6 | 0.1 to 1 µM | < 0.01 µM |  | < 0.1 µM | CNC1CCCN(c2ccc(Nc3ncc(C)c(-c4cc5c(ncn5C(C)C)c(F)n4)n3)cc2)C1=O (centres unmarked) [compound 298] | 
7 | 0.1 to 1 µM | < 0.01 µM |  | < 0.1 µM | CNC1CCCN(c2ccc(Nc3ncc(Cl)c(-c4cc5c(ncn5C(C)C)c(F)n4)n3)cc2)C1=O (centres unmarked) [compound 299] | 
8 | > 1 µM | < 0.01 µM |  | < 0.1 µM | CC(C)n1cnc2c(F)nc(-c3nc(Nc4ccc(N5CCCC(N(C)C)C5=O)cn4)ncc3F)cc21 (centres unmarked) [compound 300] | 
9 | 0.01 to 0.1 µM | < 0.01 µM |  | < 0.1 µM | CC(C)n1cnc2c(F)nc(-c3ccnc(Nc4ccc(N5CCCC(N(C)C)C5=O)cc4)n3)cc21 (centres unmarked) [compound 304] | 
10 | 0.01 to 0.1 µM | < 0.01 µM |  | < 0.1 µM | CC(C)n1cnc2c(F)nc(-c3ccnc(Nc4ccc(N5CCCC(N)C5=O)cc4F)n3)cc21 (centres unmarked) [compound 306] | 
11 | 0.1 to 1 µM | < 0.01 µM |  | < 0.1 µM | CC(C)n1cnc2c(F)nc(-c3ccnc(Nc4ccc(N5CCN(C(C)(C)C)CC5)cn4)n3)cc21 [compound 308] | 
12 | 0.1 to 1 µM | < 0.01 µM |  | < 0.1 µM | CC(C)n1cnc2c(F)nc(-c3ccnc(Nc4ccc(N5CCN(CCF)CC5)cn4)n3)cc21 [compound 309] | 
13 |  |  |  | < 0.1 µM | COc1nc(-c2ccnc(Nc3ccc(N4CCCC(N(C)C)C4=O)cc3)n2)cc2c1ncn2C(C)C (centres unmarked) [compound 311] | IC50 (CDK2/CyclinE1; CDK2/CyclinE1): 0.1 to 1 µM; IC50 (CDK4/CyclinD1; CDK4/CyclinD1): < 0.01 µM

Continued, molecule first:

Row | SMILES | IC50 (CDK2/CyclinE1; CDK2/CyclinE1, 100 μM ATP) | IC50 (CDK4/CyclinD1; CDK4/CyclinD1, 200 μM ATP) | IC50 (CDK6/CyclinD3; CDK6/CyclinD3, 300 μM ATP) | IC50 (T47D breast cancer cells) | also measured
14 | C=CC(=O)Nc1cc(Nc2ncc(F)c(-c3ccn4nc(C)c(C)c4c3)n2)c(OC)cc1N(C)CCN(C)C [Compound 10 disclosed in CN109503573A, reference compound] |  |  |  |  | IC50 (CDK4/CyclinD1; comparative compound): > 10 µM; IC50 (CDK6/CyclinD3; comparative compound): > 10 µM
15 | CC(C)c1cnn2ccc(-c3ccnc(Nc4ccc(N5CCC(N(C)C)CC5=O)cn4)n3)cc12 (centres unmarked) [Synthetic Example 16] | 0.01 to 0.1 µM | < 0.01 µM | < 0.01 µM |  | 
16 | CCN1CCN(Cc2ccc(Nc3ncc(F)c(-c4cn5c(C(C)C)cnc5c(OC)n4)n3)nc2)CC1 [Synthetic Example 60] |  | 0.01 to 0.1 µM | 0.1 to 1 µM |  | 
17 | COc1nc(-c2nc(Nc3ccc(N4CCN(CCS(C)(=O)=O)CC4=O)cn3)ncc2F)cc2c1nc(C)n2C(C)C [Synthetic Example 121] | > 1 µM | < 0.01 µM | 0.01 to 0.1 µM |  | 
18 | COc1nc(-c2nc(Nc3ccc(N4CCN(C5CNC5)CC4=O)cn3)ncc2F)cc2c1nc(C)n2C(C)C [Synthetic Example 138] | 0.1 to 1 µM | < 0.01 µM | 0.01 to 0.1 µM |  | 
19 | CC(C)N1CCN(c2ccc(Nc3nccc(-c4cc5c(ncn5C(C)C)c(F)n4)n3)nc2)CC1 [Synthetic Example 287] | 0.1 to 1 µM | < 0.01 µM | 0.01 to 0.1 µM |  | 
20 | O=C1COCCN1c1ccc(Nc2ncc(F)c(-c3ccn4ncc(C5=CCOCC5)c4c3)n2)nc1 [compound 17] |  | 0.01 to 0.1 µM | 0.1 to 1 µM |  | 
21 | C=C(C)c1cnn2ccc(-c3nc(Nc4ccc(CN5CCN(CC)CC5)cn4)ncc3F)cc12 [compound 19] |  | 0.01 to 0.1 µM | 0.1 to 1 µM |  | 
22 | CCN1CCN(Cc2ccc(Nc3ncc(F)c(-c4ccn5ncc(Br)c5c4)n3)nc2)CC1 [compound 20] |  | 0.1 to 1 µM | > 1 µM |  | 
23 | CCN1CCN(Cc2ccc(Nc3ncc(F)c(-c4ccn5ncc(C(C)C)c5c4)n3)nc2)CC1 [compound 22] |  | < 0.01 µM | 0.01 to 0.1 µM |  | 
24 | CCN1CCN(Cc2cccc(Nc3ncc(F)c(-c4ccn5ncc(C(C)C)c5c4)n3)n2)CC1 [compound 24] |  | 0.1 to 1 µM | > 1 µM |  | 
25 | CC(C)c1cnn2ccc(-c3ccnc(Nc4ccc(N5CCNCC5=O)nc4)n3)cc12 [compound 35] |  |  | 0.01 to 0.1 µM |  | 
26 | CCn1cnc2c(OC)nc(-c3nc(Nc4ccc(N5CCOCC5=O)cn4)ncc3F)cc21 [compound 84] |  |  |  |  | IC50 (CDK2/CyclinE1; CDK2/CyclinE1): > 1 µM; IC50 (CDK4/CyclinD1; CDK4/CyclinD1): 0.01 to 0.1 µM; IC50 (CDK6/CyclinD3; CDK6/CyclinD3): 0.1 to 1 µM
27 | COc1nc(-c2nc(Nc3ccc(N4CCOCC4=O)cc3F)ncc2F)cc2c1nc(C)n2C(C)C [compound 92] |  |  |  |  | IC50 (CDK2/CyclinE1; CDK2/CyclinE1): 0.01 to 0.1 µM; IC50 (CDK4/CyclinD1; CDK4/CyclinD1): < 0.01 µM; IC50 (CDK6/CyclinD3; CDK6/CyclinD3): 0.01 to 0.1 µM
28 | COc1nc(-c2nc(Nc3ccc(CN4CCN5CCCC5C4)cn3)ncc2F)cc2c1nc(C)n2C(C)C (centres unmarked) [compound 101] |  |  |  |  | IC50 (CDK4/CyclinD1; CDK4/CyclinD1): 0.01 to 0.1 µM; IC50 (CDK6/CyclinD3; CDK6/CyclinD3): 0.01 to 0.1 µM
29 | CC1(N)CCN(c2ccc(Nc3nccc(-c4cc(F)c5c(c4)C4(CCCC4)CO5)n3)nc2)C(=O)C1 (centres unmarked) [compound 260] | 0.01 to 0.1 µM | < 0.01 µM |  | < 0.1 µM | 
30 | CC1(C)COc2c(F)cc(-c3ccnc(Nc4ccc(N5CCCC(N)C5=O)cc4)n3)cc21 (centres unmarked) [compound 263] | 0.01 to 0.1 µM | < 0.01 µM |  | < 0.1 µM | 
31 | CNC1CCCN(c2ccc(Nc3nccc(-c4cc(F)c5c(c4)C(C)(C)CO5)n3)cc2)C1=O (centres unmarked) [compound 265] | 0.01 to 0.1 µM | < 0.01 µM |  | < 0.1 µM | 
32 | CN(C)C1CCCN(c2ccc(Nc3nccc(-c4cc(F)c5c(c4)C(C)(C)CO5)n3)cc2)C1=O (centres unmarked) [compound 266] | 0.1 to 1 µM | < 0.01 µM |  | < 0.1 µM | 
33 | CC(C)n1cnc2c(F)nc(-c3ccnc(Nc4ccc(N5CCN(C6CC6)CC5)cn4)n3)cc21 [compound 267] | 0.1 to 1 µM | < 0.01 µM |  | < 0.1 µM | 
